Earlier results as cited in US20050239875A1, “Derivatives of dihydronepetalactone and method for preparation” (priority 2003, published 2005).

System: insect
Conditions: disclosed by Hallahan in WO 03/079786

Question: Which “insect repellent performance compared with N,N-diethyl-m-toluamide (DEET)” value does the source give for `CC1COC(=O)C2C(C)CCC12` (stereo not shown) [DHN, Dihydronepetalactone] here?
Answer: Its value is “compares favorably”.
